Reference: US11865128B2, “Aminoglycosides and uses thereof in treating genetic disorders” (Technion Research & Development Foundation Limited, priority 2010, dated 2024)
≈ marks a conversion by molar mass, not a printed value. Like-named read-outs stand apart in the source and are kept apart here.

How the values were obtained:
[1] = system: nonsense mutation constructs R3X, R245X, G542X, W1282X, Q70X, R3381X (PCDH15, CFTR, IDUA, Dystrophin); assay: In vitro stop codon readthrough assay, p2Luc dual luciferase, TNT reticulocyte lysate; assay type: biochemical; conditions: cell-free, mutations tested; comparison in words from FIGS. 2, 3, 5-7
Source text: DNA fragments derived from PCDH15, CFTR, Dystrophin and IDUA cDNAs, including the tested nonsense mutation or the corresponding wild type (wt) codon, and four to six upstream and downstream flanking codons were created by annealing following pairs of complementary oligonucleotides:
The fragments were inserted in frame into the polylinker of the p2Luc plasmid between either BamHI and SacI (p.R3X and p.R245X), or SalI and SacI (all the rest) restriction sites.
For the in vitro readthrough assays, the obtained plasm ids, with addition of the tested aminoglycosides were transcribed and translated using the TNT Reticulocyte Lysate Quick Coupled Transcription/Translation System. Luciferase activity was determined after 90 minutes of incubation at 30° C., using the Dual Luciferase Reporter Assay System (Promega™).
Initially, the influence of the chiral C5″-methyl group on readthrough potential was evaluated on the pseudo-trisaccharides NB118 and NB119 by using a dual luciferase reporter assay system as described hereinabove. Briefly, DNA fragments were cloned between BamHI and SacI restriction sites of the p2luc vector and the obtained constructs were transcribed and translated using TNT quick coupled transcription/translation system. The amount of the translated products was evaluated using the dual luciferase reporter assay system and used to calculate the suppression level.

[2] = target: Prokaryotic system (prokaryotic ribosome); assay: Prokaryotic translation inhibition, coupled transcription/translation, luciferase detection; assay type: biochemical
Description: Prokaryotic and eukaryotic translation inhibition was quantified in coupled transcription/translation assays by using active luciferase detection, performed as described hereinabove. […] All the experiments were performed in duplicates and analogous results were obtained in three different experiments. In all biological tests, all tested aminoglycosides were in their sulfate salt forms. The concentrations reported refer to that of the free amine form of each aminoglycoside.
(§1) In all biological experiments conducted, all tested aminoglycosides were in their sulfate salt forms. The concentrations reported in Table 3 refer to that of the free amine form of each aminoglycoside. Prokaryotic and eukaryotic translation inhibition was quantified in coupled transcription/translation assays as previously described. The half-maximal concentration (IC50) values were obtained from fitting concentration response curves to the data of at least three independent experiments, using GraFit 5 software. All the experiments were performed in duplicates and analogous results were obtained in three different experiments.

HEK-293 cells = assay: Cell toxicity LC50 in HEK-293 cells; assay type: cell-based; conditions: Table 2
Description: (§2) In order to ensure suitable cell viability for each of the tested compounds at the concentrations tested, cell toxicity was evaluated for each compound by measuring the half-maximal-lethal concentration value (LC50 values) in HEK-293 and HFF (human foreskin fibroblasts) cells.
(§3) The percentages of cell viability were calculated as the ratio between the numbers of living cells in cultures grown in the presence of the tested compounds, versus cultures grown under the identical protocol but without the tested compound. The results represent averages of at least three independent experiments.
(§4) The half-maximal lethal concentration (LC50) values were obtained from fitting concentration-response curves to the data of at least three independent experiments, using GraFit 5 software.

[3] = system: nonsense mutation constructs R3X, R245X, Q70X, W1282X, G542X in HEK-293 cells; assay: Ex vivo stop codon readthrough assay, p2luc constructs transfected to HEK-293 cells; assay type: cell-based, human; conditions: ex vivo in HEK-293, all the mutations tested, FIGS. 4, 8-10
Description: For the ex vivo readthrough assays, the constructs harboring the R3X, R245X, Q70X and W1282X mutations were transfected to HEK-293 cells with Lipofectamine 2000 (Invitrogen) and addition of the tested compounds was performed 6 hours post transfection. The cells were harvested following 16 hours of incubation with the tested aminoglycosides. Stop codon readthrough was calculated as previously described (see, Grentzmann, G. et al., RNA, 1998, 4, p. 479).
The constructs were transfected into a human embryonic kidney cell line (HEK-293) and incubated with varying concentrations of NB122, NB123, NB54 and the control drug gentamicin, and the results are presented in FIGS. 4A-D.
As described hereinabove, the constructs of p2luc plasmid harboring the R3X, R245X, Q70X and W1282X mutations were transfected to HEK-293 cells using lipofectamine2000 and the tested compounds were added 6 hours post transfection. Cells were harvested after 16 hours incubation and luciferase activity was determined using the dual luciferase reporter assay system (Promega™). Stop codon readthrough was calculated as described previously, and the results are averages of at least three independent experiments.

[4] = system: HFF (human foreskin fibroblasts) cells; assay: Cell toxicity LC50 in HFF cells; assay type: cell-based; conditions: Table 2
Description: as §2, §3, §4

[5] = target: Eukaryotic system (eukaryotic cytoplasmic ribosome); assay: Eukaryotic translation inhibition, coupled transcription/translation, luciferase detection; assay type: biochemical; conditions: for Prokaryotic versus Eukaryotic selectivity IC50^Euk/IC50^Pro: ratio of eukaryotic to prokaryotic translation inhibition IC50
Source text: Prokaryotic and eukaryotic translation inhibition was quantified in coupled transcription/translation assays by using active luciferase detection, performed as described hereinabove. […] In all biological tests, all tested aminoglycosides were in their sulfate salt forms. The concentrations reported refer to that of the free amine form of each aminoglycoside.
as §1, with “software.” for “software. All the experiments were performed in duplicates and analogous results were obtained in three different experiments.”

B. subtilis ATCC6633 = assay: Antibacterial activity MIC, double-microdilution; assay type: cell-based, Bacillus subtilis; conditions: read-out: Antibacterial activity MIC B. subtilis ATCC6633
E. coli R477/100 = assay: Antibacterial activity MIC, double-microdilution; assay type: cell-based, Escherichia coli; conditions: read-out: Antibacterial activity MIC E. coli R477/100
[6] = Cell toxicity LC50 in HEK-293 cells; assay type: cell-based; conditions: human, HEK-293 cells; Table 1; read-out: Cell toxicity LC50 HEK-293
Description: as §2, §3, §4

[7] = system: Prokaryotic system (prokaryotic ribosome); conditions: shown previously; cited from earlier work
[8] = Cell toxicity LC50 in HFF cells; assay type: cell-based; conditions: human, HFF (human foreskin fibroblast) cells; Table 1; read-out: Cell toxicity LC50 HFF
Description: as §2, §3, §4

[9] = Table 2, read-out: Translation Inhibition Prokaryotic system IC50
[10] = Table 3, read-out: Translation Inhibition IC50^Pro
[11] = Table 2, read-out: Translation Inhibition Eukaryotic System IC50
[12] = Table 3, read-out: Translation Inhibition IC50^Euk

C[C@@H](O)C1O[C@H](O[C@@H]2C(N)C[C@@H](N)C(O)[C@H]2O[C@@H]2O[C@H]([C@@H](C)N)[C@H](O)C2O)C(N)[C@@H](O)[C@@H]1O (stereo partly drawn) [NB125, 6′-(R)-Methyl-5-O-(5-amino-5,6-dideoxy-β-D-allofuranosyl)-paromamine]
in vitro readthrough activity (stop codon suppression level) [1]: smaller comparatively
IC50 [2, 9]: 1.86 ± 0.173 µM
IC50 [2, 10]: 1.86 ± 0.173 µM
CC50 (HEK-293 cells): 16500 ± 3100 µM
observed efficacy of aminoglycoside-induced readthrough, order [3]: NB124>NB125>NB74>gentamicin
CC50 [4]: 7590 ± 180 µM
IC50 [5, 11]: 7.96 ± 0.27 µM
IC50 [5, 12]: 7.96 ± 0.27 µM
Prokaryotic versus Eukaryotic selectivity IC50^Euk/IC50^Pro [5]: 4.3
MIC (B. subtilis ATCC6633; Table 2): 96 µM (≈ 46.3 µg/mL)
MIC (E. coli R477/100; Table 2): 1536 µM (≈ 741 µg/mL)

CC(N)C1OC(OC2C(O)C(NC(=O)C(O)CCN)CC(N)C2OC2OC(C(C)O)C(O)C(O)C2N)C(O)C1O [NB127, 6′-(R)-Methyl-5-O-(5-amino-5,6-dideoxy-α-L-talofuranosyl)-1-N—[(S)-4-amino-2-hydroxy-butanoyl] paromamine]
in vitro readthrough activity (stop codon suppression level) [1]: significantly stronger readthrough inducers than the corresponding counterparts
IC50 [2, 9]: 1.75 ± 0.274 µM
IC50 [2, 10]: 1.75 ± 0.274 µM
CC50 (HEK-293 cells): 5090 ± 270 µM
observed efficacy of aminoglycoside-induced readthrough, order [3]: NB127 NB128>NB84>gentamicin
CC50 [4]: 6480 ± 260 µM
IC50 [5, 11]: 0.73 ± 0.07 µM
IC50 [5, 12]: 0.73 ± 0.07 µM
Prokaryotic versus Eukaryotic selectivity IC50^Euk/IC50^Pro [5]: 0.4
MIC (B. subtilis ATCC6633; Table 2): 192 µM (≈ 112 µg/mL)
MIC (E. coli R477/100; Table 2): 384 µM (≈ 224 µg/mL)

NC[C@H]1O[C@@H](O[C@@H]2C(O)[C@H](N)CC(N)[C@H]2O[C@H]2OC(CO)[C@@H](O)[C@H](O)C2N)C(O)[C@H]1O (stereo partly shown) [NB30, reference compound]
IC50 ([2]; Table 1, read-out: Translation inhibition Prokaryotic system IC50): 0.46 ± 0.05 µM
IC50 [2, 10]: 0.46 ± 0.05 µM
CC50 [6]: 21400 µM
weaker inhibitors of prokaryotic translation than gentamicin and paromomycin [7]: about 10 fold
CC50 [8]: 21800 ± 900 µM
IC50 ([5]; Table 1, read-out: Translation inhibition Eukaryotic System IC50): 31 µM
IC50 [5, 12]: 31 ± 4 µM
Prokaryotic versus Eukaryotic selectivity IC50^Euk/IC50^Pro [5]: 68
MIC (B. subtilis ATCC6633; Bacillus subtilis, ATCC6633, Table 1, free amine concentration, sulfate salts tested): 100 µM
MIC (E. coli R477/100; Escherichia coli, R477/100, Table 1): 790 µM (≈ 359 µg/mL)

C[C@@H](N)[C@H]1O[C@@H](O[C@@H]2[C@@H](O)[C@H](NC(=O)[C@@H](O)CCN)C[C@H](N)[C@H]2O[C@H]2O[C@H]([C@@H](C)O)[C@@H](O)[C@H](O)[C@H]2N)[C@H](O)[C@@H]1O [NB128, 6′-(R)-Methyl-5-O-(5-amino-5,6-dideoxy-β-D-allofuranosyl)-1-N—[(S)-4-amino-2-hydroxy-butanoyl] paromamine]
in vitro readthrough activity (stop codon suppression level) [1]: significantly stronger readthrough inducers than the corresponding counterparts
IC50 [2, 9]: 1.75 ± 0.145 µM
IC50 [2, 10]: 1.75 ± 0.145 µM
CC50 (HEK-293 cells): 5350 ± 310 µM
observed efficacy of aminoglycoside-induced readthrough, order [3]: NB127 NB128>NB84>gentamicin
CC50 [4]: 2780 ± 110 µM
IC50 [5, 11]: 0.89 ± 0.07 µM
IC50 [5, 12]: 0.89 ± 0.07 µM
Prokaryotic versus Eukaryotic selectivity IC50^Euk/IC50^Pro [5]: 0.5
MIC (B. subtilis ATCC6633; Table 2): 96 µM (≈ 56 µg/mL)
MIC (E. coli R477/100; Table 2): 384 µM (≈ 224 µg/mL)
